Source: BindingDB's records for doi:10.1021/jm030585i (Merck Research Laboratories, 2004)
pIC50: −log10 of the molar value.

Target: T1, Mineralocorticoid receptor (Rattus norvegicus, UniProt P22199)
T1 sequence (P22199 whole entry): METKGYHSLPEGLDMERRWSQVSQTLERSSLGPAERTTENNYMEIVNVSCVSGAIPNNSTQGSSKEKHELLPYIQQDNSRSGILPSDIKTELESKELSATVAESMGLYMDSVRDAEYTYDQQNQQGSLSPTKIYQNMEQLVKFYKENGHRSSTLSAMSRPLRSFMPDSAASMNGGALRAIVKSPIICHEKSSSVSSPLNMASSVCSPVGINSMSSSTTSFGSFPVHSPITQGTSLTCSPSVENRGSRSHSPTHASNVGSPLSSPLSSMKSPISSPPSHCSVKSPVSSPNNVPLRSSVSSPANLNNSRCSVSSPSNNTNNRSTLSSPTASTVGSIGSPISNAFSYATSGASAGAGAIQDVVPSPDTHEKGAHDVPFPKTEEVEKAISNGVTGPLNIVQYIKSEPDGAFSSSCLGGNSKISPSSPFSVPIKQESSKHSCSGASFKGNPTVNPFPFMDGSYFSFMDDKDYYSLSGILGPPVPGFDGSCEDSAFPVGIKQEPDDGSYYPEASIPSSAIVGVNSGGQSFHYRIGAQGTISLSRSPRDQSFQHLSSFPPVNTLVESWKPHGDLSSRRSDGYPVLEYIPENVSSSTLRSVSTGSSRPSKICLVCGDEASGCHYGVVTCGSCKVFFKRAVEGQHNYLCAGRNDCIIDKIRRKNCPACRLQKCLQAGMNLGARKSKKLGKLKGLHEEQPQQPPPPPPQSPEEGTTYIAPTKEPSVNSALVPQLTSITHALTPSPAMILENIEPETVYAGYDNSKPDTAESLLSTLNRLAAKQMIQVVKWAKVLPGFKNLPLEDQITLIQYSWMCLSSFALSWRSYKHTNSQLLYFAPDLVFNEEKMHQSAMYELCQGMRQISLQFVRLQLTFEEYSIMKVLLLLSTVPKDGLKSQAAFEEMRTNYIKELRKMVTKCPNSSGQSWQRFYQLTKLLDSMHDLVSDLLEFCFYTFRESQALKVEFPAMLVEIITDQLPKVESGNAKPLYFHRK

pIC50 | SMILES
< 5.30 | C[C@]12Cc3cnn(-c4ccc(F)cc4)c3C=C1CCC[C@@H]2[C@@H](O)c1ccccc1 [(R)-[(4aR,5S)-1-(4-fluorophenyl)-4a-methyl-1H,4H,4aH,5H,6H,7H,8H-cyclohexa[f]indazol-5-yl](phenyl)methanol]
< 5.30 | C[C@]12Cc3cnn(-c4ccc(F)cc4)c3C=C1CCC[C@@H]2[C@@H](O)c1ccc(F)cc1 [BMCL173354 benzo[f]indazole, 6]
< 5.30 | C[C@]12Cc3cnn(-c4ccc(F)cc4)c3C=C1CCC[C@@H]2[C@H](O)c1ccc(F)cc1 [BMCL173354 benzo[f]indazole, 7]
< 5.30 | C=CCC[C@H](O)[C@H]1CCCC2=Cc3c(cnn3-c3ccc(F)cc3)C[C@@]21C [(1S)-1-[(4aR,5S)-1-(4-fluorophenyl)-4a-methyl-1H,4H,4aH,5H,6H,7H,8H-cyclohexa[f]indazol-5-yl]pent-4-en-1-ol]
< 5.30 | C[C@]12Cc3cnn(-c4ccc(F)cc4)c3C=C1CCC[C@@H]2[C@](C)(O)c1ccc(F)cc1 [(1S)-1-[(4aR,5S)-1-(4-fluorophenyl)-4a-methyl-1H,4H,4aH,5H,6H,7H,8H-cyclohexa[f]indazol-5-yl]-1-(4-fluorophenyl)ethan-1-ol]
< 5.30 | COc1cc([C@H](O)[C@H]2CCCC3=Cc4c(cnn4-c4ccc(F)cc4)C[C@@]32C)cc(F)c1F [(R)-[(4aR,5S)-1-(4-fluorophenyl)-4a-methyl-1H,4H,4aH,5H,6H,7H,8H-cyclohexa[f]indazol-5-yl](3,4-difluoro-5-methoxyphenyl)methanol]
